Experimental data from ChEMBL document CHEMBL1201862, “PubChem BioAssay data set” (2004).
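Results reflect a 48-hour exposure of cells in 96-well plates to compound at five concentrations. At the GI50, growth is halved.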 Active and inactive are the calls of the source. Rule as the data show it: active = GI50 up to about 1.1 µM and inactive = higher.

Tests used:
Assay in all cases: inhibition of tumour cell growth, NCI panel, 48 h
M19-MEL = test system: M19-MEL
MCF7 = test system: MCF7
SR = test system: SR
SK-OV-3 = test system: SK-OV-3
A498 = test system: A498
COLO 205 = test system: COLO 205
PC-3 = test system: PC-3
MDA-MB-231 = test system: MDA-MB-231
CCRF-CEM = test system: CCRF-CEM
OVCAR-5 = test system: OVCAR-5
UACC-257 = test system: UACC-257
NCI-H23 = test system: NCI-H23
HT-29 = test system: HT-29
OVCAR-8 = test system: OVCAR-8
OVCAR-4 = test system: OVCAR-4
OVCAR-3 = test system: OVCAR-3
HCT-116 = test system: HCT-116
M14 = test system: M14
UACC-62 = test system: UACC-62
NCI-H522 = test system: NCI-H522

Compound	GI50 (M19-MEL)	GI50 (MCF7)	GI50 (SR)	GI50 (SK-OV-3)	GI50 (A498)	GI50 (COLO 205)	GI50 (PC-3)	GI50 (MDA-MB-231)	GI50 (CCRF-CEM)	GI50 (OVCAR-5)	GI50 (UACC-257)	GI50 (NCI-H23)	GI50 (HT-29)	GI50 (OVCAR-8)	GI50 (OVCAR-4)	GI50 (OVCAR-3)	GI50 (HCT-116)	GI50 (M14)	GI50 (UACC-62)	GI50 (NCI-H522)
CN(Cc1cnc2nc(N)nc(N)c2n1)c1ccc(C(=O)NC(CCC(=O)O)C(=O)O)c2ccccc12 (stereo not given)	0.01 µM (active)	0.00163 µM (active)	0.0025 µM (active)	0.0456 µM (active)	0.0526 µM (active)	0.0391 µM (active)	0.000479 µM (active)	< 0.1 µM (active)	0.000843 µM (active)	0.0185 µM (active)	0.0425 µM (active)	0.00773 µM (active)	0.00168 µM (active)	0.00378 µM (active)	< 0.1 µM (active)	0.0429 µM (active)	0.000647 µM (active)	0.00869 µM (active)	0.00148 µM (active)	–
CCOc1ccc(NC(=O)/C(CC(=O)c2c[n+]([O-])c3ccccc3[n+]2[O-])=N\OCCCc2ccccc2)cc1	> 100 µM (inactive)	–	> 100 µM (inactive)	> 100 µM (inactive)	> 100 µM (inactive)	> 100 µM (inactive)	–	–	42.2 µM (inactive)	> 100 µM (inactive)	> 100 µM (inactive)	> 100 µM (inactive)	> 100 µM (inactive)	> 100 µM (inactive)	> 100 µM (inactive)	> 100 µM (inactive)	> 100 µM (inactive)	> 100 µM (inactive)	> 100 µM (inactive)	> 100 µM (inactive)
COc1ccc(/C=C\c2cc(OC)c(O[Si](C)(C)C(C)(C)C)c(OC)c2)cc1	32.3 µM (inactive)	–	19.7 µM (inactive)	> 100 µM (inactive)	21 µM (inactive)	68.9 µM (inactive)	–	–	23.7 µM (inactive)	20.6 µM (inactive)	21.7 µM (inactive)	54 µM (inactive)	15 µM (inactive)	15.6 µM (inactive)	76.6 µM (inactive)	55.5 µM (inactive)	33.7 µM (inactive)	45.4 µM (inactive)	55 µM (inactive)	38.5 µM (inactive)
COc1cccc2[s+]snc12	22.8 µM (inactive)	–	22.2 µM (inactive)	> 100 µM (inactive)	95.7 µM (inactive)	> 100 µM (inactive)	–	–	> 10 µM (inactive)	> 100 µM (inactive)	30.1 µM (inactive)	57.7 µM (inactive)	96.8 µM (inactive)	26.9 µM (inactive)	43.9 µM (inactive)	> 100 µM (inactive)	45.4 µM (inactive)	> 100 µM (inactive)	25.1 µM (inactive)	> 10 µM (inactive)
Cc1c2cc[n+](CCN3CCCCC3)cc2c(C)c2c1[nH]c1ccc(O)cc12	0.982 µM (active)	1.76 µM (inactive)	0.0723 µM (active)	3.02 µM (inactive)	10.6 µM (inactive)	1.66 µM (inactive)	7.96 µM (inactive)	9.93 µM (inactive)	1.11 µM (active)	10.5 µM (inactive)	13.7 µM (inactive)	5.46 µM (inactive)	8 µM (inactive)	2.04 µM (inactive)	1.13 µM (inactive)	6.05 µM (inactive)	2.58 µM (inactive)	9.27 µM (inactive)	5.47 µM (inactive)	1.99 µM (inactive)
